# Measurements: article PMC12549899 (Nature Communications, 2025)
# Target: T1, DrOTOP1 F277A (Danio rerio, UniProt Q7ZWK8, F277A)
# T1 construct: A previously generated codon-optimized full-length DrOTOP1[8]; (UniProt: Q7ZWK8) construct; expressed in transfected cells; host or cells: HEK-293 (CRL-1573, ATCC)
# T1 sequence (Q7ZWK8 1-586 F277A): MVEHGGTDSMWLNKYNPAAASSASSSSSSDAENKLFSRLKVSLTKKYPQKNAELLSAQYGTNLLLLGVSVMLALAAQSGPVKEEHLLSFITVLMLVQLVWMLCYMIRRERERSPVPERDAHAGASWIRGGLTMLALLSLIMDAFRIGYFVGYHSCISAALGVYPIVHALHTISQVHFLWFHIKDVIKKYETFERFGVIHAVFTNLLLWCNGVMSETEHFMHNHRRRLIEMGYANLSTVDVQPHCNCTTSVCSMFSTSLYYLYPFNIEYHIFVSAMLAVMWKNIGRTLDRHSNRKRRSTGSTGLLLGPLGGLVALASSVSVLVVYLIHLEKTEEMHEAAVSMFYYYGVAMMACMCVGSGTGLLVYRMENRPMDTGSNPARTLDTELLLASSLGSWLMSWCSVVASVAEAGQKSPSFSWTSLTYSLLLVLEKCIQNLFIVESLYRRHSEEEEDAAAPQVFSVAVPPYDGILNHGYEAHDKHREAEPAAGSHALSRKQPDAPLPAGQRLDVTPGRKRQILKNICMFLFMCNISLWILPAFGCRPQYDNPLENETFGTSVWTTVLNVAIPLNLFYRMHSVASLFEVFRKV
# Test: Whole-cell patch-clamp, inhibition of acid-evoked currents, DrOTOP1 F277A
# Assay type: cell-based, zebrafish (Danio rerio)
# Conditions: single cells or mean
# From the text: To functionally test the significance of the two binding sites identified by cryo-EM, we generated point mutations of DrOTOP1 using the binding poses and conformational changes observed in DrOTOP1_C2.2 to guide our mutations. As per the binding pose that best fits our cryo-EM density, C2.2 forms the following interactions in the outer site: hydrophobic packing against many non-polar residues W126, G130, M133, L134, F271, F570, and M573, and π-stacking with W532 (Fig. 5A). In addition, C2.2 could potentially form H-bonds with E267, if the sidechain is protonated or a water bridge is present, and with H574 if it moves closer (Fig. 5A). Likewise, C2.36 presents a heterocyclic nitrogen that can potentially form a H-bond with E267, similarly, provided a protonation or water bridge is present (Fig. 5B). In addition, C2.36 forms a T-shaped π-stacking interaction with H574, whose sidechain has rotated 90 degrees (compared to DrOTOP1_apo), presumably to accommodate the interaction (Fig. 5B). […]
# Whole-cell patch-clamp recording was performed as previously described[6],[22],[25]. Recordings were made with an Axopatch 200B amplifier, digitized with a Digidata 1322a 16-bit data acquisition system, acquired with pClamp 8.2 and analyzed with Clampfit 10 (Molecular Devices). […]
smiles,measurement,value
C=C(C)COc1ccccc1NC(=O)c1nc[nH]c1C [C2.2],inhibition at 10 µM,76.2%
